Laboratory results taken from ChEMBL document CHEMBL3507680, “University of Dundee, Gates Library screen for HepG2 cell viability”.

Assay: Human HepG2 cell viability assay in 384 well format
Assay type: toxicity, cell-based
Set-up: dose 125 nL, time 70.5 hour; cytotoxicity at 70.5 h: concentration not given beside the values
Conditions: HepG2 cells, read-out: Inhibition

| SMILES | cytotoxicity at 70.5 h [%] |
| --- | --- |
| CCn1ccnc1CN1CCN(CCc2ccncc2)CC1C (stereo not given) | 7.35 |
| O=C(C1CC1)N1CCCC1c1nnc2n1CCCCC2 (stereo not given) | 0.772 |
| NC(=O)c1ccc(CN2CCC(N3CCCC3)CC2)cc1 | -2.01 |
| NC(=O)c1cccc(CN2CCOC(Cn3cccn3)C2)c1 (stereo not given) | 8.52 |
| CS(=O)(=O)CCn1ccc(NC(=O)CCc2cccc(F)c2)n1 | -3.41 |
| CNc1cc(N2CCCC2CNCc2cccnc2C)ncn1 (stereo not given) | 4.98 |
| Cc1cc(F)ccc1CCNC(=O)NCC(C)N1CCOCC1 (stereo not given) | 3.68 |
| CC(C)C(NC(=O)NCC1CC1)c1nnc2n1CCC2 (stereo not given) | 3.11 |
| CCc1cc(CNC(=O)N2CCN(c3nc(C)c(C)s3)CC2)on1 | -3.25 |
| CC(C)COCCCNC(=O)c1cccnc1N1CCOCC1 | 4.2 |
| Cc1nc(C)n(C2CCCN(C(=O)CCn3cncn3)C2)n1 (stereo not given) | -0.0645 |
| Cc1nc(C)n(C2CCCN(C(=O)CCc3cscn3)C2)n1 (stereo not given) | 37 |
| Cc1cc(C)n(CC2CN(Cc3ccc4c(c3)OCCO4)CCO2)n1 (stereo not given) | -3.91 |
| CCC(CNC1CCN(C(=O)N(C)C)CC1)Oc1ccccc1C (stereo not given) | 27.1 |
| CCC(CNC1CCN(C(C)=O)CC1)Oc1ccccc1Cl (stereo not given) | 5.02 |
| Cc1cnn(CCNCC(=O)NC2(C#N)CCCC2)c1 | -0.423 |
| Cc1sc2nc(C(F)(F)F)nc(N3CCN(C)CC3)c2c1C | -4.17 |
| CCCc1nc(C)c(C(=O)NC2CCN(c3ncccn3)CC2)s1 | -9.16 |
| N#CC1(NC(=O)COC(=O)Cn2cccn2)CCCC1 | -7.86 |
| OC1CCN(c2ccccc2NCc2nc(-c3cccs3)no2)CC1 | -10.7 |

| SMILES | cytotoxicity at 70.5 h [%] |
| --- | --- |
| OC1CCN(c2ccccc2NCc2nc(-c3ccoc3)no2)CC1 | 36.2 |
| CC(NCc1ccncc1)c1cc2c(cc1Br)OCCO2 (stereo not given) | -4.83 |
| CC(Cn1cccn1)NCC(=O)NC1(C#N)CCCCC1 (stereo not given) | 21.3 |
| CCOC(C)C(=O)N(C)C1CCN(c2ccc(OC)cc2)CC1 (stereo not given) | -4.16 |
| O=C(NS(=O)(=O)Cc1ccc(F)cc1)C1CCOc2ccccc21 (stereo not given) | -9.19 |
| Cc1ncc2c(n1)CN(Cc1nc3c(F)cccc3[nH]1)CC2 | -2.01 |
| Fc1cccc2[nH]c(CN3CCc4cncnc4C3)nc12 | -7.7 |
| CSC(C)C(=O)N(C)C1CCN(c2ccc(Cl)cc2)CC1 (stereo not given) | 2.45 |
| COc1ccc(N2CCC(N(C)C(=O)C(C)SC)CC2)cc1 (stereo not given) | -6.26 |
| CCC(CNC(=O)NC1CCN(C)CC1)Oc1ccccc1Cl (stereo not given) | 30.5 |
| O=C(NCc1csc2ccccc12)NCC1(O)CCSC1 (stereo not given) | -2.26 |
| FC(F)Sc1ccc(NCc2nnc(C3CC3)o2)cc1 | -4.17 |
| COc1ccnc(NC(=O)c2cscn2)c1 | -10.4 |
| CN(Cc1ccc2c(c1)OCO2)Cc1nc(Cc2ccccc2)no1 | -5.91 |
| CCOC(C)c1noc(CN2CCN(c3ccncc3)CC2)n1 (stereo not given) | -6.31 |
| CCOC(C)c1noc(CN2CCCNCC2)n1 (stereo not given) | -5.58 |
| CCOC(C)c1noc(CN2CCN(Cc3cccnc3)CC2)n1 (stereo not given) | 34.3 |
| CCOC(C)c1noc(CN2CCN(Cc3cccc(F)c3)CC2)n1 (stereo not given) | -7.41 |
| CCC(=O)N1CSCC1C(=O)N(C)CCc1ccccc1 (stereo not given) | 7.14 |
| O=C(CCNS(=O)(=O)c1cccnc1)N1CCCCC1 | 15.8 |

| SMILES | cytotoxicity at 70.5 h [%] |
| --- | --- |
| O=C(c1ccc(-n2ccnc2)nn1)N1CCCC1CCc1ccccc1 (stereo not given) | -19.5 |
| CCc1nc(CN(C)C(=O)NC(C)c2cccc(NC(C)=O)c2)cs1 (stereo not given) | 12.9 |
| COc1ccc(Nc2cc(C)nc(C)n2)cc1N1CCCC1=O | -7.1 |
| CCc1nc(CN(C)C(=O)NCc2cccc(NC(C)=O)c2)cs1 | -10.2 |
| c1csc(-c2noc(CN3CCc4c(ncn4C4CC4)C3)n2)c1 | -14.5 |
| CCCC(C#N)NC(=O)COC1CCCCC1 (stereo not given) | 6.33 |
| CN(CCc1ccncc1)C(=O)C1CSCN1C(=O)C(C)(C)C (stereo not given) | -8.71 |
| c1ccc(-c2noc(CN3CCc4c(ncn4C4CC4)C3)n2)nc1 | -6.92 |
| Cc1ccc(OCC(=O)Nc2cnccc2SCCCO)cc1C | 9.63 |
| COc1ccc(Nc2ccc(C#N)cn2)cc1N1CCCC1=O | 5.76 |
| CC(C)C1CN(S(=O)(=O)c2cccc(C#N)c2)CCS1 (stereo not given) | 8.4 |
| Cc1ccc(-c2nc(CN3CCn4c(nnc4C4CC4)C3)no2)cc1 | 10.2 |
| CN1CCC(NC(=O)CCCc2cc(Cl)sc2Cl)C1=O (stereo not given) | -9.29 |
| Cc1ccsc1CNC(=O)c1ccc2c(c1)CCC(=O)N2 | 16.1 |
| O=C1CCc2cc(C(=O)NCc3ccc(Cl)s3)ccc2N1 | -3.83 |
| Cn1ccc(C(=O)NCCOc2ccc3c(c2)OCO3)cc1=O | -6.82 |
| CCOc1ccc(NC(C)C(=O)Nc2cc(C)no2)cc1 (stereo not given) | -5.28 |
| Cc1ccc(S(=O)(=O)CCC(=O)NCc2nnc3n2CCC3)cc1 | -3.09 |
| CCOc1ccc(CN(C)C(C)C(=O)Nc2cc(C)no2)cc1 (stereo not given) | -5.64 |
| COc1ccc(OCCN(C)c2cc(C)nc(N)n2)cc1 | -6.24 |
